Results: the supplement of paper PMC10307832

How the values were obtained:
Assay in all cases: relative viability (nuclei count vs DMSO), 5 days (fraction); higher = more cells survive
[1] = compound: N#CC[C@H](C1CCCC1)n1cc(-c2ncnc3[nH]ccc23)cn1 [Ruxolitinib] + COc1cc2c(Oc3ccc(NC(=O)C4(C(=O)Nc5ccc(F)cc5)CC4)cc3F)ccnc2cc1OCCCN1CCOCC1 [Foretinib] (partner 0.25 µM)
Method in brief: (§1)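 A single step with final 0.05% Triton X-100, 1% formaldehyde and 1 ug/ml Hoechst fixed the cells and stained nuclei 5 days after treatment. Lung cancer cell lines in 1536-well plates had been treated by pin tool the day after seeding with one drug alone or a fixed anchor-drug dose plus five library-drug doses (not always all listed) in √10 steps, and nuclei were counted on 4× images. Relative viability is the ratio of nuclei in treated wells to nuclei in vehicle wells, taken as the median of duplicate plates.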

[2] = compound: N#CC[C@H](C1CCCC1)n1cc(-c2ncnc3[nH]ccc23)cn1 [Ruxolitinib] + Nc1nc2[nH]cc(CCc3ccc(C(=O)N[C@@H](CCC(=O)O)C(=O)O)cc3)c2c(=O)[nH]1 [Pemetrexed] (partner 0.2 µM)
Method in brief: as §1

[3] = compound: N#CC[C@H](C1CCCC1)n1cc(-c2ncnc3[nH]ccc23)cn1 [Ruxolitinib] + Cc1nc(Nc2ncc(C(=O)Nc3c(C)cccc3Cl)s2)cc(N2CCN(CCO)CC2)n1 [Dasatinib] (partner 0.075 µM)
Method in brief: as §1

[4] = compound: N#CC[C@H](C1CCCC1)n1cc(-c2ncnc3[nH]ccc23)cn1 [Ruxolitinib] + CC1(C)CCC(c2ccc(Cl)cc2)=C(CN2CCN(c3ccc(C(=O)NS(=O)(=O)c4ccc(N[C@H](CCN5CCOCC5)CSc5ccccc5)c(S(=O)(=O)C(F)(F)F)c4)cc3)CC2)C1 [Navitoclax] (partner 0.5 µM)
Method in brief: as §1

Cell Line: NCI-H358
- relative viability ([1]; first compound 0.08 µM): 0.531
- relative viability ([1]; first compound 0.253 µM): 0.692
- relative viability ([1]; first compound 0.8 µM): 0.638
- relative viability ([1]; first compound 2.53 µM): 0.619
- relative viability ([1]; first compound 8 µM): 0.558
- relative viability ([2]; first compound 0.08 µM): 0.174
- relative viability ([2]; first compound 0.253 µM): 0.152
- relative viability ([2]; first compound 0.8 µM): 0.177
- relative viability ([2]; first compound 2.53 µM): 0.163
- relative viability ([2]; first compound 8 µM): 0.126
- relative viability ([3]; first compound 0.08 µM): 0.189
- relative viability ([3]; first compound 0.253 µM): 0.131
- relative viability ([3]; first compound 0.8 µM): 0.175
- relative viability ([3]; first compound 2.53 µM): 0.135
- relative viability ([3]; first compound 8 µM): 0.164

Cell Line: NCI-H522
- relative viability ([2]; first compound 0.08 µM): 1.04
- relative viability ([2]; first compound 0.253 µM): 0.973
- relative viability ([2]; first compound 0.8 µM): 1.05
- relative viability ([2]; first compound 2.53 µM): 0.964
- relative viability ([2]; first compound 8 µM): 0.857
- relative viability ([3]; first compound 0.08 µM): 0.751
- relative viability ([3]; first compound 0.253 µM): 1.03
- relative viability ([3]; first compound 0.8 µM): 0.916
- relative viability ([3]; first compound 2.53 µM): 0.919
- relative viability ([3]; first compound 8 µM): 0.731

Cell Line: NCI-H650
- relative viability ([1]; first compound 0.253 µM): 1
- relative viability ([1]; first compound 0.8 µM): 1.14
- relative viability ([1]; first compound 2.53 µM): 0.917
- relative viability ([1]; first compound 8 µM): 0.678
- relative viability ([2]; first compound 0.08 µM): 0.898
- relative viability ([2]; first compound 0.253 µM): 0.98
- relative viability ([2]; first compound 0.8 µM): 0.958
- relative viability ([2]; first compound 2.53 µM): 0.966
- relative viability ([2]; first compound 8 µM): 0.683
- relative viability ([3]; first compound 0.253 µM): 0.366
- relative viability ([3]; first compound 0.8 µM): 0.453
- relative viability ([3]; first compound 2.53 µM): 0.295
- relative viability ([3]; first compound 8 µM): 0.293

Cell Line: NCI-H661
- relative viability ([1]; first compound 0.08 µM): 0.92
- relative viability ([1]; first compound 0.253 µM): 1.05
- relative viability ([1]; first compound 0.8 µM): 1.08
- relative viability ([1]; first compound 2.53 µM): 0.94
- relative viability ([1]; first compound 8 µM): 0.926
- relative viability ([2]; first compound 0.08 µM): 0.925
- relative viability ([2]; first compound 0.253 µM): 0.959
- relative viability ([2]; first compound 0.8 µM): 0.939
- relative viability ([2]; first compound 2.53 µM): 1
- relative viability ([2]; first compound 8 µM): 0.809
- relative viability ([3]; first compound 0.08 µM): 0.964
- relative viability ([3]; first compound 0.253 µM): 0.872
- relative viability ([3]; first compound 0.8 µM): 1.03
- relative viability ([3]; first compound 2.53 µM): 0.695
- relative viability ([3]; first compound 8 µM): 0.498

Cell Line: NCI-H727
- relative viability ([1]; first compound 0.08 µM): 1.21
- relative viability ([1]; first compound 0.253 µM): 0.976
- relative viability ([1]; first compound 0.8 µM): 1.3
- relative viability ([1]; first compound 2.53 µM): 0.873
- relative viability ([1]; first compound 8 µM): 1.03
- relative viability ([3]; first compound 0.08 µM): 0.396
- relative viability ([3]; first compound 0.253 µM): 0.303
- relative viability ([3]; first compound 0.8 µM): 0.456
- relative viability ([3]; first compound 2.53 µM): 0.469
- relative viability ([3]; first compound 8 µM): 0.451
- relative viability ([4]; first compound 0.08 µM): 0.472
- relative viability ([4]; first compound 0.253 µM): 0.426
- relative viability ([4]; first compound 0.8 µM): 0.627
- relative viability ([4]; first compound 2.53 µM): 0.595
- relative viability ([4]; first compound 8 µM): 0.366

Cell Line: NCI-H1299
- relative viability ([1]; first compound 0.08 µM): 1.09
- relative viability ([1]; first compound 0.253 µM): 1.1
- relative viability ([1]; first compound 0.8 µM): 1.05
- relative viability ([1]; first compound 2.53 µM): 0.982
- relative viability ([1]; first compound 8 µM): 0.853
- relative viability ([4]; first compound 0.08 µM): 1.03
- relative viability ([4]; first compound 0.253 µM): 1.05
- relative viability ([4]; first compound 0.8 µM): 1.02
- relative viability ([4]; first compound 2.53 µM): 1.02
- relative viability ([4]; first compound 8 µM): 0.85

Cell Line: NCI-H1563
- relative viability ([1]; first compound 0.08 µM): 0.994
- relative viability ([1]; first compound 0.253 µM): 0.976
- relative viability ([1]; first compound 0.8 µM): 0.997
- relative viability ([1]; first compound 2.53 µM): 0.852
- relative viability ([1]; first compound 8 µM): 0.94
- relative viability ([2]; first compound 0.08 µM): 0.724
- relative viability ([2]; first compound 0.253 µM): 0.744
- relative viability ([2]; first compound 0.8 µM): 0.892
- relative viability ([2]; first compound 2.53 µM): 0.774
- relative viability ([2]; first compound 8 µM): 0.544
- relative viability ([3]; first compound 0.08 µM): 0.446
- relative viability ([3]; first compound 0.253 µM): 0.481
- relative viability ([3]; first compound 0.8 µM): 0.452
- relative viability ([3]; first compound 2.53 µM): 0.43
- relative viability ([3]; first compound 8 µM): 0.402

Cell Line: NCI-H1623
- relative viability ([1]; first compound 0.08 µM): 0.908
- relative viability ([1]; first compound 0.253 µM): 0.94
- relative viability ([1]; first compound 0.8 µM): 0.971
- relative viability ([1]; first compound 2.53 µM): 1.01
- relative viability ([1]; first compound 8 µM): 0.994
- relative viability ([3]; first compound 0.08 µM): 0.591
- relative viability ([3]; first compound 0.253 µM): 0.512
- relative viability ([3]; first compound 0.8 µM): 0.488
- relative viability ([3]; first compound 2.53 µM): 0.699
- relative viability ([3]; first compound 8 µM): 0.474

Cell Line: NCI-H1648
- relative viability ([2]; first compound 0.08 µM): 0.674
- relative viability ([2]; first compound 0.253 µM): 0.838
- relative viability ([2]; first compound 0.8 µM): 0.739
- relative viability ([2]; first compound 2.53 µM): 0.923
- relative viability ([2]; first compound 8 µM): 1.02

Cell Line: NCI-H1703
- relative viability ([1]; first compound 0.08 µM): 0.298
- relative viability ([1]; first compound 0.253 µM): 0.338
- relative viability ([1]; first compound 0.8 µM): 0.376
- relative viability ([1]; first compound 2.53 µM): 0.329
- relative viability ([1]; first compound 8 µM): 0.287
- relative viability ([4]; first compound 0.08 µM): 1.18
- relative viability ([4]; first compound 0.253 µM): 1.23
- relative viability ([4]; first compound 0.8 µM): 1.23
- relative viability ([4]; first compound 2.53 µM): 0.562
- relative viability ([4]; first compound 8 µM): 0.611

Cell Line: NCI-H1792
- relative viability ([2]; first compound 0.08 µM): 0.883
- relative viability ([2]; first compound 0.253 µM): 0.608
- relative viability ([2]; first compound 0.8 µM): 0.778
- relative viability ([2]; first compound 2.53 µM): 0.564
- relative viability ([2]; first compound 8 µM): 0.425
- relative viability ([3]; first compound 0.08 µM): 0.664
- relative viability ([3]; first compound 0.253 µM): 0.664
- relative viability ([3]; first compound 0.8 µM): 0.675
- relative viability ([3]; first compound 2.53 µM): 0.541
- relative viability ([3]; first compound 8 µM): 0.466
- relative viability ([4]; first compound 0.08 µM): 0.658
- relative viability ([4]; first compound 0.253 µM): 0.644
- relative viability ([4]; first compound 0.8 µM): 0.595
- relative viability ([4]; first compound 2.53 µM): 0.473
- relative viability ([4]; first compound 8 µM): 0.519

Cell Line: NCI-H2342
- relative viability ([1]; first compound 0.08 µM): 1.07
- relative viability ([1]; first compound 0.253 µM): 0.936
- relative viability ([1]; first compound 0.8 µM): 1.17
- relative viability ([1]; first compound 2.53 µM): 1.07
- relative viability ([1]; first compound 8 µM): 1.11
- relative viability ([2]; first compound 0.08 µM): 0.594
- relative viability ([2]; first compound 0.253 µM): 0.767
- relative viability ([2]; first compound 0.8 µM): 0.812
- relative viability ([2]; first compound 2.53 µM): 0.752
- relative viability ([2]; first compound 8 µM): 0.733
- relative viability ([3]; first compound 0.08 µM): 0.315
- relative viability ([3]; first compound 0.253 µM): 0.299
- relative viability ([3]; first compound 0.8 µM): 0.341
- relative viability ([3]; first compound 2.53 µM): 0.31
- relative viability ([3]; first compound 8 µM): 0.319

Cell Line: SW 900
- relative viability ([1]; first compound 0.08 µM): 0.88
- relative viability ([1]; first compound 0.253 µM): 0.806
- relative viability ([1]; first compound 0.8 µM): 1.01
- relative viability ([1]; first compound 2.53 µM): 0.912
- relative viability ([1]; first compound 8 µM): 1.11
- relative viability ([2]; first compound 0.08 µM): 0.467
- relative viability ([2]; first compound 0.253 µM): 0.493
- relative viability ([2]; first compound 0.8 µM): 0.485
- relative viability ([2]; first compound 2.53 µM): 0.466
- relative viability ([2]; first compound 8 µM): 0.532
- relative viability ([3]; first compound 0.08 µM): 0.675
- relative viability ([3]; first compound 0.253 µM): 0.487
- relative viability ([3]; first compound 0.8 µM): 0.542
- relative viability ([3]; first compound 2.53 µM): 0.403
- relative viability ([3]; first compound 8 µM): 0.489
